Test results as given in ChEMBL document CHEMBL5649170, “Sustained microglial depletion with CSF1R inhibitor impairs parenchymal plaque development in an Alzheimer's disease model” (Nat Commun, 2019).
pIC50: −log10 of the molar value. The source made the active and inactive calls. The rule behind the calls is not given here.

What was measured:
[1] = biological target: Vascular endothelial growth factor receptor 2 (Homo sapiens, UniProt P35968); assay: Inhibition of KDR (unknown origin)
[2] = biological target: Tyrosine-protein kinase ABL2 (Homo sapiens, UniProt P42684); assay: Inhibition of ABL2 (unknown origin)
[3] = biological target: Fibroblast growth factor receptor 2 (Homo sapiens, UniProt P21802); assay: Inhibition of FGFR2 (unknown origin)
[4] = biological target: Tyrosine-protein kinase JAK3 (Homo sapiens, UniProt P52333); assay: Inhibition of JAK3 (unknown origin)
Misshapen-like kinase 1 = Misshapen-like kinase 1 (Homo sapiens, UniProt Q8N4C8); assay: Inhibition of MINK1 (unknown origin)
[5] = biological target: Serine/threonine-protein kinase Nek1 (Homo sapiens, UniProt Q96PY6); assay: Inhibition of NEK1 (unknown origin)
[6] = biological target: Phosphatidylinositol 4,5-bisphosphate 3-kinase catalytic subunit gamma isoform (Homo sapiens, UniProt P48736); assay: Inhibition of PIK3CG (unknown origin)
[7] = biological target: Serine/threonine-protein kinase N1 (Homo sapiens, UniProt Q16512); assay: Inhibition of PKN1 (unknown origin)
Chain of Serine/threonine-protein kinase N1 (Q16512 whole entry): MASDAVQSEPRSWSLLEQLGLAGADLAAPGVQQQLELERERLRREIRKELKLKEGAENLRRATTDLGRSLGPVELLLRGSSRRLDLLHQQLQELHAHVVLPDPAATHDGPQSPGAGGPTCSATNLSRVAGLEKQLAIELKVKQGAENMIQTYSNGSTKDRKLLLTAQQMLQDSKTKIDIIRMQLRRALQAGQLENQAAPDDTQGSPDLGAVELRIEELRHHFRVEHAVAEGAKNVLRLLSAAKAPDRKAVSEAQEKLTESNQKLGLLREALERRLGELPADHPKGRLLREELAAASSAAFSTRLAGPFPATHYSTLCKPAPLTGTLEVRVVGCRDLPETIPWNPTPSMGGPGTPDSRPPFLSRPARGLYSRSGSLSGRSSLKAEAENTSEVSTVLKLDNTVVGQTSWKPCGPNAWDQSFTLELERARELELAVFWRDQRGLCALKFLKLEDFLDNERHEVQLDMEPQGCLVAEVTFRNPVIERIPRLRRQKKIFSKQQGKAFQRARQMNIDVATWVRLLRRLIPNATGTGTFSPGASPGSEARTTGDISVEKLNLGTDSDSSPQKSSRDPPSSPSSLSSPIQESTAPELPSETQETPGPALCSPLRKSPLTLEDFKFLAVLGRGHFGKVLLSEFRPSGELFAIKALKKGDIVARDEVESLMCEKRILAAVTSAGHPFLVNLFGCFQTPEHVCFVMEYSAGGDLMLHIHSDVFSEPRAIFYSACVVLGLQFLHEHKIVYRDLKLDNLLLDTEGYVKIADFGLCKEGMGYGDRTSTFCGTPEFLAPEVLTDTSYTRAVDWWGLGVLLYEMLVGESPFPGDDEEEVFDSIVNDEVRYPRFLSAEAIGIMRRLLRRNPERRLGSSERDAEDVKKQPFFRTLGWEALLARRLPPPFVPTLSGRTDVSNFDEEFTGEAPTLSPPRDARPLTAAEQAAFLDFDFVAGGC

[8] = biological target: Serine/threonine-protein kinase PLK2 (Homo sapiens, UniProt Q9NYY3); assay: Inhibition of PLK2 (unknown origin)
[9] = biological target: Serine/threonine-protein kinase D1 (Homo sapiens, UniProt Q15139); assay: Inhibition of PRKD1 (unknown origin)
[10] = biological target: Ribosomal protein S6 kinase alpha-1 (Homo sapiens, UniProt Q15418); assay: Inhibition of RPS6KA1 (unknown origin)
Chain of Ribosomal protein S6 kinase alpha-1 (Q15418 whole entry): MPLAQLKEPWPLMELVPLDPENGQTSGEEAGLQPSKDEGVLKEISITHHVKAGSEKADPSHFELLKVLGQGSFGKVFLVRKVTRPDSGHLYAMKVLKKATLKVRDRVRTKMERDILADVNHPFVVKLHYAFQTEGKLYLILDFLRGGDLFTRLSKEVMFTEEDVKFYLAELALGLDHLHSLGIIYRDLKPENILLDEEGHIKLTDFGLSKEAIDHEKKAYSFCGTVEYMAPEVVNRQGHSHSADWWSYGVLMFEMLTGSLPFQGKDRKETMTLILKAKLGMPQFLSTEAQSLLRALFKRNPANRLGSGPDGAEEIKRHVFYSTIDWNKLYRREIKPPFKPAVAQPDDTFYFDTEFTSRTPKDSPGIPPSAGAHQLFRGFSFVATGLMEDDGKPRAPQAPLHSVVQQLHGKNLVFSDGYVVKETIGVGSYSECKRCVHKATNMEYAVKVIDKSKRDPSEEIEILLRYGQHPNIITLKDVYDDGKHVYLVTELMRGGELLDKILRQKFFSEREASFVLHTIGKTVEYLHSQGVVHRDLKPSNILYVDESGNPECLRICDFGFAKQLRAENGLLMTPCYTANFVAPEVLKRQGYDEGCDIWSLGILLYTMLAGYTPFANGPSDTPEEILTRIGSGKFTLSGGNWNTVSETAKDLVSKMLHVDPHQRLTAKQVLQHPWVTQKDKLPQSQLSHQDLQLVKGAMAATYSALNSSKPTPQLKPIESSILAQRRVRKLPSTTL

[11] = biological target: Serine/threonine-protein kinase 25 (Homo sapiens, UniProt O00506); assay: Inhibition of STK25 (unknown origin)
Chain of Serine/threonine-protein kinase 25 (O00506 whole entry): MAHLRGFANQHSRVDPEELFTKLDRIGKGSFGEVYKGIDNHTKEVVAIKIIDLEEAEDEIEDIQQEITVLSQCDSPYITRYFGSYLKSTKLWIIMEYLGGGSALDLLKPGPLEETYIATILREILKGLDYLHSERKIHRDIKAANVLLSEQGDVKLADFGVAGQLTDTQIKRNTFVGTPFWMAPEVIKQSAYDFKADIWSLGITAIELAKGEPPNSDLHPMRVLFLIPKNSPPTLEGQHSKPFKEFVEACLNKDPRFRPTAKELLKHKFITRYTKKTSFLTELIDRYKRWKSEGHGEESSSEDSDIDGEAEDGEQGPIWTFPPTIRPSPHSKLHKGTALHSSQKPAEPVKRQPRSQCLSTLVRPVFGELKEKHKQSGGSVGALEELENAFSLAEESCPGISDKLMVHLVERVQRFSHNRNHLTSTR

[12] = biological target: Tyrosine-protein kinase receptor TYRO3 (Homo sapiens, UniProt Q06418); assay: Inhibition of TYRO3 (unknown origin)
Chain of Tyrosine-protein kinase receptor TYRO3 (Q06418 whole entry): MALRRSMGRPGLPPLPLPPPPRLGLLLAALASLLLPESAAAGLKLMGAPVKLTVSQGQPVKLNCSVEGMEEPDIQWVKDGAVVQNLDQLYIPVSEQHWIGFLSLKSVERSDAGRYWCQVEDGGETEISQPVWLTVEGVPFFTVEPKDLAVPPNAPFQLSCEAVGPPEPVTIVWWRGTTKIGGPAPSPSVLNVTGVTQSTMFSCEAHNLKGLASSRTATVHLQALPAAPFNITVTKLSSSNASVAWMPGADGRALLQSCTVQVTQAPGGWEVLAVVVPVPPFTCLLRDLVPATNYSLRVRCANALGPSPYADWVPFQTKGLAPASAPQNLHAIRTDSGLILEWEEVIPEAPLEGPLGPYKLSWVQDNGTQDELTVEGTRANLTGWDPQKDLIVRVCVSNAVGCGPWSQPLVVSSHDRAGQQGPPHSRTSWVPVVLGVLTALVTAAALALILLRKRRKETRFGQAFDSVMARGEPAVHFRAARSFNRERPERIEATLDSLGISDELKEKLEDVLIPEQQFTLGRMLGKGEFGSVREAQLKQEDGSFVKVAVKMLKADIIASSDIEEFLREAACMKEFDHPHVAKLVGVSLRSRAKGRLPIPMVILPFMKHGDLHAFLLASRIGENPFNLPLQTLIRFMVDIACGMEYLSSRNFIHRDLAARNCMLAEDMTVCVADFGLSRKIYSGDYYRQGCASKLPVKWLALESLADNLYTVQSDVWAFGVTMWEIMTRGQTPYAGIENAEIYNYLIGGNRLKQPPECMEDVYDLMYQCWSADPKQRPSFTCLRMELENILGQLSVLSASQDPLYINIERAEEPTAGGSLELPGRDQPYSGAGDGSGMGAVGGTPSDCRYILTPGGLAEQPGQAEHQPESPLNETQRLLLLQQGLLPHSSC

[13] = biological target: Tyrosine-protein kinase ZAP-70 (Homo sapiens, UniProt P43403); assay: Inhibition of ZAP70 (unknown origin)
Chain of Tyrosine-protein kinase ZAP-70 (P43403 whole entry): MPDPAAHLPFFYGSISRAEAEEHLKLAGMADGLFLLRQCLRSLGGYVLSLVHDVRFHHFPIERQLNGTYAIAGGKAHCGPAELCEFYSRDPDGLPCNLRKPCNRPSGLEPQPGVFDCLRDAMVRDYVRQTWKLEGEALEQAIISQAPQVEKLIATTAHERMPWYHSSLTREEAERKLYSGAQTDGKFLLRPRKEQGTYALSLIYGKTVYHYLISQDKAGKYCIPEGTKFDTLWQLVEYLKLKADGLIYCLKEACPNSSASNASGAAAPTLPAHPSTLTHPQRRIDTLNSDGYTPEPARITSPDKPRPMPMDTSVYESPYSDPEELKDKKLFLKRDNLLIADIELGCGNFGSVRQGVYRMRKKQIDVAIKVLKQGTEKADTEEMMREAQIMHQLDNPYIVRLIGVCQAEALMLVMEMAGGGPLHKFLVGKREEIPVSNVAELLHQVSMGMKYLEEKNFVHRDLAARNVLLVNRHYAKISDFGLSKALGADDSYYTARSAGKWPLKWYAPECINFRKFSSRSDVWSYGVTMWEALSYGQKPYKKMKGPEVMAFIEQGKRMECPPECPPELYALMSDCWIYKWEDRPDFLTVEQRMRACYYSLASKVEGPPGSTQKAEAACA

[14] = Clearance in male rat at 1.13 mg/kg, iv administered as single dose; type: ADME, organism-based; conditions: in vivo
Mus musculus [15] = assay: Antialzheimer activity in 5XFAD mouse assessed as time spent in closed arm at 1200 ppm administered as rodent chow for 10 to 24 weeks by Elevated plus maze test (reference value: 76.2 to 206.2 sec); type: functional; conditions: route po, time 10-24 weeks
Mus musculus [16] = assay: Antialzheimer activity in 5XFAD mouse assessed as number of Thio-S positive plaques per FOV in thalamus at 1200 ppm administered as rodent chow starting from 1.5 months and measured after 4 months by Thio-S staining based confocal microscopic analysis (reference value: 139 to 224); type: functional; conditions: route po, time 2.5 months, 1825 h
[17] = biological target: T1, Macrophage colony-stimulating factor 1 receptor (Mus musculus) (UniProt P09581); assay: In vivo inhibition of CSF1R in wildtype mouse assessed as number of GFAP positive cell per FOV in […] cortex at 1200 ppm administered as rodent chow for 10 to 24 weeks by immunolabelling based confocal microscopic analysis (reference value: 17 to 92); type: functional; conditions: route po, time 10-24 weeks
T1 sequence (whole entry): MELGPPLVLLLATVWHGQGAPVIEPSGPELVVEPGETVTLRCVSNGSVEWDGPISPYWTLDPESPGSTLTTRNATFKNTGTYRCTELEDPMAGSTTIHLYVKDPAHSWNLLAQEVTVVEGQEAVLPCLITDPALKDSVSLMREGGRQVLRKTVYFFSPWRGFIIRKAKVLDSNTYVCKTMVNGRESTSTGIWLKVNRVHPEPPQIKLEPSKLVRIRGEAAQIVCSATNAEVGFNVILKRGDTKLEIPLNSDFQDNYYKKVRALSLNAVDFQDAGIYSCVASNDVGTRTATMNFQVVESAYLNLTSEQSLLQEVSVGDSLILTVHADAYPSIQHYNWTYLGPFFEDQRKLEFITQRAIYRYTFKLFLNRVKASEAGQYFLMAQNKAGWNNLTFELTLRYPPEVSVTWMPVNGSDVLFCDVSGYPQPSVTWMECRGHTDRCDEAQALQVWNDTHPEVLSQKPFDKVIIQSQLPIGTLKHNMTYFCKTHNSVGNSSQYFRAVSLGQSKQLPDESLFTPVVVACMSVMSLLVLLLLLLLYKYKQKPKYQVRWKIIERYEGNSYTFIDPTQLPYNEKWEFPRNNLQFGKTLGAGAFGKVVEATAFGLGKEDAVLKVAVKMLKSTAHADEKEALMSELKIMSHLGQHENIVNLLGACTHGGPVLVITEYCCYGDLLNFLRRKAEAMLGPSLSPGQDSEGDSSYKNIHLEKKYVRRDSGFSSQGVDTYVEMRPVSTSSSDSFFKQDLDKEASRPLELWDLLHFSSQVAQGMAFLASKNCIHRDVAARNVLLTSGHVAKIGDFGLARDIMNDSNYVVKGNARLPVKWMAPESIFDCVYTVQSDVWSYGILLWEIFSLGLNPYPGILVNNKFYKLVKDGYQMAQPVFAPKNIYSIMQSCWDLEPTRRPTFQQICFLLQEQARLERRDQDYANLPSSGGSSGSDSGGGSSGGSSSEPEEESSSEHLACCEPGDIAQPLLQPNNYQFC

[18] = biological target: T1, Macrophage colony-stimulating factor 1 receptor (Mus musculus); assay: In vivo inhibition of CSF1R in wildtype mouse assessed as number of S100bteta positive cells per FOV in […] cortex at 1200 ppm administered as rodent chow for 10 to 24 weeks by immunolabelling based confocal microscopic analysis (reference value: 296 to 337); type: functional; conditions: route po, time 10-24 weeks
Mus musculus [19] = assay: Antialzheimer activity in 5XFAD mouse assessed as percent change in claudin-5 intensity of retro spinal cortex at 1200 ppm administered as rodent chow starting from 1.5 months and measured after 4 months by immunolabeling analysis relative to control; type: functional; conditions: route po, time 2.5 months, 1825 h
Mus musculus [20] = assay: Effect on APP processing pathway in wildtype mouse assessed as full length APP protein signal intensity in cortex at 1200 ppm administered as rodent starting from 1.5 months and measured after 7 months (reference value: 0.124 to 27.917 %); type: functional; conditions: route po, time 5.5 months, 4015 h
[21] = Effect on Ctsd gene expression in 5XFAD mouse hippocampus at 1200 ppm administered as rodent chow starting from 1.5 months and measured after 7 months by RNA-Seq analysis (reference value: 230.675 to 384.375 RPKM); type: functional; conditions: route po, time 5.5 months, 4015 h
[22] = Effect on Ctsd gene expression in 5XFAD mouse thalamus at 1200 ppm administered as rodent chow starting from 1.5 months and measured after 7 months by RNA-Seq analysis (reference value: 209.488 to 301.760 RPKM); type: functional; conditions: route po, time 5.5 months, 4015 h
[23] = Prevention of Rtn4r gene downregulation in 5XFAD mouse hippocampus assessed as percent change in Reads Per kilo base per Million mapped reads at 1200 ppm administered as rodent chow starting from 1.5 months and measured after 7 months by RNA-Seq analysis (reference value: 53.880 to 87.869 %); type: functional; conditions: route po, time 5.5 months, 4015 h
Mus musculus [24] = assay: Antialzheimer activity in 5XFAD mouse assessed as microglial elimination in brain at 1200 ppm administered as rodent chow by Thio-S staining based confocal microscopic analysis; conditions: route po

Chain of Vascular endothelial growth factor receptor 2 (P35968 whole entry): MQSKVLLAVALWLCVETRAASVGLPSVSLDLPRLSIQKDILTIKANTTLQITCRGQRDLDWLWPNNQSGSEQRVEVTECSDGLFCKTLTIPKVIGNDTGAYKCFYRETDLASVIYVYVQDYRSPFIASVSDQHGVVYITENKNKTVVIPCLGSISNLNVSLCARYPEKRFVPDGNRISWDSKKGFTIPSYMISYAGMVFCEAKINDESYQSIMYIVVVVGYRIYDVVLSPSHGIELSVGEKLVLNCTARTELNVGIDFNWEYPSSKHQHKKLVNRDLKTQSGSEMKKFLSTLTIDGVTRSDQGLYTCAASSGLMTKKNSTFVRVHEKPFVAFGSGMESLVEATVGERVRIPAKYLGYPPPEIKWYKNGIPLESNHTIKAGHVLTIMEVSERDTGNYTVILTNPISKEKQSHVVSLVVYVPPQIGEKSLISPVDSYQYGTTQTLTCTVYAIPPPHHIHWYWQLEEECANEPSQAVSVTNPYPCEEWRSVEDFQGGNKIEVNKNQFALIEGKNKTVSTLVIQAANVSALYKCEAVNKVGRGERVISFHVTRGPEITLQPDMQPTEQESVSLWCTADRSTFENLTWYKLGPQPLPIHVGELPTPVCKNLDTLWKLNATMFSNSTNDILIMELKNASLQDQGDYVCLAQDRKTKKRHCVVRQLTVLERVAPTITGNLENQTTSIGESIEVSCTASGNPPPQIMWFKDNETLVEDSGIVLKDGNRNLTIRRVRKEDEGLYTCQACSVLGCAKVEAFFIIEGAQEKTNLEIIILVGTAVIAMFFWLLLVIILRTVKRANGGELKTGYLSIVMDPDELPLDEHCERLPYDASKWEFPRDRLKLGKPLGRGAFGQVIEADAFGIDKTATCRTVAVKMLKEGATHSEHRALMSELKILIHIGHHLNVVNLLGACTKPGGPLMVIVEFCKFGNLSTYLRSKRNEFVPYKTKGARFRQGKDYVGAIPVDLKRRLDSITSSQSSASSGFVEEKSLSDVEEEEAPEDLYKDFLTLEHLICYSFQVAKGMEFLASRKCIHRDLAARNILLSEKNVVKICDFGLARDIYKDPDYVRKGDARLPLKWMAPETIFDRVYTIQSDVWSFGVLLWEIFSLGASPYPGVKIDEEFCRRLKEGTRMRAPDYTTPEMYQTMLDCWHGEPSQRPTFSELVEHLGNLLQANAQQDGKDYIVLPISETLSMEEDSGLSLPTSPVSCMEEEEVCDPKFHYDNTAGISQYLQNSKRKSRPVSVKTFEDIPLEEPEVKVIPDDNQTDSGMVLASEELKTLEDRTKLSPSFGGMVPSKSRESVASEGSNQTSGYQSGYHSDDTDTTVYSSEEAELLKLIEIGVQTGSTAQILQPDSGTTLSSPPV

Compound COc1ncc(F)cc1CNc1ccc(Cc2c[nH]c3ncc(C)cc23)c(F)n1 [PLX-5622] has a pIC50 [1] of 5.96, a pIC50 [2] of under 6.00 and a pIC50 [3] of under 6.00. It also gave a pIC50 [4] of under 6.00, a pIC50 (Misshapen-like kinase 1) of under 6.00 and a pIC50 [5] of under 6.00. It also gave a pIC50 [6] of under 6.00, a pIC50 [7] of under 6.00 and a pIC50 [8] of under 6.00. The pIC50 [9] was under 6.00, the pIC50 [10] was under 6.00 and the pIC50 [11] was under 6.00. It also gave a pIC50 [12] of under 6.00, a pIC50 [13] of under 6.00 and a clearance [14] of 7.7 mL/min/kg. It also gave a Time (Mus musculus [15]) of 30.9 s, an Activity (Mus musculus [16]) of 76 and an Activity [17] of 7. For the same compound, the Activity [18] was 269, the Activity (Mus musculus [19]) was 33.704% and the Activity (Mus musculus [20]) was 0.823%. For the same compound, the Activity [21] was 132.829 RPKM, the Activity [22] was 111.226 RPKM and the Activity [23] was 95.841%. The Activity (Mus musculus [24]) was “Active”.
